Columns and labels:
NFκB = NFκB promoter activity in transfected THP-1 cells (beta-lactamase reporter); assay type: cell-based, human; details: THP-1 cells, TNFα-stimulated
Protocol: The assay utilizes a genetically modified THP-1 cell line and GeneBLAzer® beta-lactamase technology (Invitrogen Corp). The human THP-1 monocyte/macrophages contain a stably-transfected beta-lactamase reporter gene under control of the NFkB response element. They respond to stimulation with TNFα, which leads to activation of the NFkB signaling pathway. Co-incubation of cells with TNFα and test material allows quantitative determination of the ability of test material to inhibit TNFα-stimulated beta-lactamase production. An inflammatory index was calculated as the ratio of beta-lactamase product to beta-lactamase substrate.
In brief, genetically modified THP-1 cells were seeded into wells of a 96-well plate (50×10^3 cells/well) in the presence of RPMI 1640 medium (70 μl). TNFα was added to each well (10 μl) to give a final concentration of 7.5 ng/ml. Dialyzed bovine serum was added (10 μl). Test compounds were dissolved in DMSO (10 μL) (5 wells). Each plate contained a no-cell control (4 wells), a no-serum control (4 wells) and two serum controls. Plates were incubated for 5 h at 37° C. to allow for NFkB-stimulated beta-lactamase production. LiveBLAzer™ FRET B/G Substrate (CCF4-AM) substrate was then added to the assay. CCF4-AM is a Förster resonance energy transfer (FRET) based substrate for beta-lactamase developed by Invitrogen Corp. Once CCFA-AM enters a cell, it is converted to negatively charged CCF4 by endogenous esterases. Excitation of this substrate at 409 nm leads to efficient FRET between the coumarin and fluorescein moieties, resulting in a green fluorescence detectable at 530 nm. The presence of beta-lactamase leads to cleavage of CCF4 and results in a loss of FRET, resulting in a robust blue fluorescent signal detectable at 460 nm. Thus, activity of beta-lactamase (a marker of NFkB-promoter activity) is measured as a product to substrate ratio (blue/green fluorescence ratio: 460 nm/530 nm).

THP-1 cells = test: Cytotoxicity in the THP-1 NFκB assay; assay type: cell-based, human; details: at active concentrations
iNOS = test: NO synthesis in LPS-stimulated RAW 264.7 (Griess); assay type: cell-based, mouse; details: LPS 50 ng/ml, 16 hrs
Protocol: The mouse macrophage cell line RAW 264.7 was cultured in DMEM supplemented with foetal calf serum (FCS), 2 mM glutamine and 50 U/ml penicillin/streptomycin. Cells were treated with either the compounds of the formula (I) (in 0.025% DMSO) or vehicle alone, and added one hour before 50 ng/ml LPS, which induces iNOS and the production of NO. After incubation for 16 hrs, culture media was collected. Nitrite concentration is a quantitative indicator of NO production and was determined by the Griess Reaction. Briefly, 100 μL of Griess reagent was added to 50 μL of each supernatant in duplicate. The absorbance at 550 nm was measured (Molecular Devices, SpectraMax 250 microplate spectrophotometer, CA, USA), and nitrite concentrations were determined against a standard curve of sodium nitrite.

RAW 264.7 = test: Toxicity in RAW 264.7; assay type: cell-based, mouse
[1] = Free radical scavenging (DPPH); assay type: biochemical; details: DPPH 0.1 mM, 20 minutes, 517 nm; read-out: Free radical scavenging ability EC50
Protocol: The antioxidant (free radical trapping) activity of test compounds was assessed using the stable free radical compound 2,2-diphenyl-1-picrylhydrazyl (DPPH). A stock solution of DPPH was prepared at a concentration of 0.1 mM in ethanol and mixed for 10 minutes prior to use. Compound (1) was reacted with DPPH for 20 minutes, after which time the absorbance at 517 nm was determined. The change in absorbance at 517 nm was compared to a reagent blank (DPPH with ethanol alone). The IC50 value was estimated as the concentration of the test compound that caused a 0.6 change in absorbance (with 1.2 absorbance units representing total scavenging of the DPPH radical).

PGE2 = PGE2 synthesis in RAW 264.7 (ELISA); assay type: cell-based, mouse; details: LPS 50 ng/ml, 16 hrs
Protocol: (§1) The mouse macrophage cell line RAW 264.7 was cultured in DMEM supplemented with foetal calf serum (FCS), 2 mM glutamine and 50 U/ml penicillin/streptomycin. Cells were treated with either test compounds (in 0.025% DMSO) or vehicle alone, and added one hour before 50 ng/ml LPS. After incubation for 16 hrs, culture media was collected for PGE2 or TXB2 measurement by ELISA (Cayman Chemical), and TNFα measurement using an ELISA (Becton Dickinson).

TXA2 = TXA2 synthesis in RAW 264.7 (ELISA); assay type: cell-based, mouse; details: LPS 50 ng/ml, 16 hrs
Protocol: as §1

TNFα = TNFα synthesis in RAW 264.7 (ELISA); assay type: cell-based, mouse; details: LPS 50 ng/ml, 16 hrs
Protocol: as §1

[2] = test system: neonatal fibroblast foreskin (NFF); test: Toxicity in normal cells (MTT), NFF; assay type: cell-based; details: Homo sapiens, 120 h, 5 days, top concentration 150 μM, read-out: Normal cell viability IC50
Protocol: (§2) Human neonatal fibroblast foreskin (NFF—a gift from Dr. Peter Parsons, Queensland Institute of Medical Research) or rabbit kidney (RK-13—a gift from Prof. Miller Whalley, Macquarie University) cells were seeded into 96 well plates and cultured in RPMI supplemented with 10% FCS (CSL, Australia), penicillin (100 U/ml), streptomycin ([…]), L-glutamine (2 mM) and sodium bicarbonate (1.2 g/L) at 37° C. and 5% CO2 for 24 hours until cells had attached and entered log phase of growth. Test compounds were added in serial two-fold dilutions from 150 μM in triplicate and incubated for a further 5 days. MTT was then added to each well, incubated for 3 hours at 37° C., after which the medium was tipped off. Following the addition of DMSO, the absorbance for each well was read on a plate reader. The assays were repeated at least twice.

rabbit kidney (RK-13) = test: Toxicity in normal cells (MTT), RK-13; assay type: cell-based; details: Oryctolagus cuniculus, RK-13, 120 h, 5 days, top concentration 150 μM, read-out: Normal cell viability IC50
Protocol: as §2

COC(=O)CNCc1cc2c(cc1O)OCC(c1ccc(O)cc1)=C2 [Compound (2)]
Effect on promoter activity of NFκB (in words) (NFκB): active at the highest concentration only | Cytotoxicity (THP-1 cells): absence of cytotoxicity | NO (iNOS; 1 μM): 16.41 ± 0.0 µM | NO (iNOS; 10 μM): 10.22 ± 0.15 µM | Effect on the viability of RAW 264.7 cells (RAW 264.7): little effect on the viability | EC50 [1]: > 100 µM | PGE2 (PGE2; 1 μM): 3180.37 ± 127.29 pg/mL | PGE2 (PGE2; 10 μM): 2070.69 ± 168.81 pg/mL | TXB2 (TXA2; 1 μM): 16.71 ± 3.43 pg/mL | TXB2 (TXA2; 10 μM): 17.58 ± 7.99 pg/mL | TNFα (TNFα; 1 μM): 35085.88 ± 2273.16 pg/mL | TNFα (TNFα; 10 μM): 46065.55 ± 1234.32 pg/mL | IC50 [2]: 145 ± 8.1 µM | IC50 (rabbit kidney (RK-13)): > 150 µM

From patent US20120003270A1, “6-SUBSTITUTED ISOFLAVONOID COMPOUNDS AND USES THEREOF” (priority 2008, published 2012)
